For series [1], the system named is NIH/3T3 cells and CRE BAG 2 cells. The series can be described thus: Cytotoxicity of CMFDG staining medium (Example 12).
Description: (§1) The same cell lines as used in Example 11 are used for these experiments.
Series [2] has the same test system. The note with it: 500 μM staining medium for 24 hours.
Description: as §1
The subject of series [3] is NIH 3T3 cells. The series can be described thus: Cytotoxicity (loss of fluorescence) assay using CMFDG (Example 15). It counts as cell-based. The note with it: 10 μM for 30 minutes at 37° C. Here is the method: 1) Reagents 5-Chloromethylfluorescein di-β-D-galactopyranoside (CMFDG) (Example 1) and 7-(β-D-galactopyranosyloxy)-4-chloromethylcoumarin (Cl-MUG) (Example 3) are separately dissolved at 10 mM anhydrous DMSO and stored frozen at −20° C. until needed. Saponin is dissolved in PBS at a concentration of 0.04%.
NIH/3T3 cells (lacZ negative) and CRE BAG 2 cells (3T3 cells transformed with a retrovirus containing latZ gene) are employed for cellular assays. Both cell lines can be obtained from American Type Culture Collection Co., Rockville, Md. The cells are grown in a humidified atmosphere of 5% CO2 in Dulbecco's modified Eagle's medium supplemented with 10% calf serum, 50 μg/mL gentamicin, 300 μg/mL L-glutamine and 10 mM HEPES pH7.4.
The experiment is most conveniently performed in a CytoFluor™ 2300 fluorescence plate reader (Millipore) but can be performed qualitatively on a microscope slide or quantitatively in a flow cytometery, or in any system that permits washing of the cells following addition of the cytotoxic agent. […] Fluorescence of each well is determined using a 485 nm excitation filter, a 530 nm emission filter and sensitivity setting 1. […] Loss of fluorescence from the sample is correlated with the loss of integrity of the membrane and thus the cytotoxicity of the reagent.

Series [4] deals with lacZ-positive yeast strains EG123 and HR125-5d. The series can be described thus: Measurement of lacZ marker gene expression in transformed yeast (Example 13). It counts as cell-based, Saccharomyces cerevisiae. The protocol: Because the CMFDG substrate generates a product that is so well retained by cells (Examples 11 and 12), it can be used for quantitative measurements of lacZ expression. • 1. A series of lacZ gene containing plasmids, each with a modified yeast promoter are used. When transferred into the appropriate strains of Saccharomyces cerevisiae, each plasmid confers a different level of lacZ gene expression. Yeast strains EG123 and HR125-5d, transformed with these plasmids, are grown in special minimal medium for plasmid maintenance and, after reaching the appropriate level of growth, are assayed for lacZ gene expression as measured by β-galactosidase activity. • 2. The β-galactosidase activity of one aliquot of these transformed yeast cells is measured using o-nitrophenyl-β-D-galactopyranoside (ONPG). • 3. Another aliquot of yeast cells is loaded with the fluorogenic substrate CMFDG as indicated in Example 12. Following washing to remove any dye that has leaked from the cells, the fluorescence intensity of the remaining cells as measured in a CytoFluor 2300 fluorescence plate reader (Millipore) can be measured over time. […] The amount of increase over time can be calculated from the slope of the plotted increase using linear regression. Each yeast strain accumulates fluorescent product at a characteristic rate, as reflected in the differences in the slopes of the various lines. • 4. […]

In series [5] the test system is lacZ positive CRE BAG 2 cells. The series can be described thus: Cellular retention after loading by hypoosmotic shock (Example 12). The series is classed as cell-based. Here is the method: 5-Chloromethylfluorescein di-β-D-galactoside (CMFDG) (Example 1) is dissolved in DMSO to get 20 mM stock solution. A 40 mM stock solution offluorescein di-β-D-galaetoside (FDG) (Molecular Probes) is also made in DMSO as a control. The stock solutions are kept sealed in brown reagent bottles and stored at −20° C.
• (A) FCS-PBS Solution: Phosphate buffered saline (GIBCO), 4% fetal calf serum, 10 mM HEPES, pH 7.2 • (B) Staining Solution: CMFDG: 200 μL of stock solution is diluted with distilled water to 4 mL to get a 1 mM staining solution. FDG: 400 μL of stock solution is diluted to 4 mL with distilled water to get a 4 mM staining solution. 4. Staining and Examination of Cells:
Cells grown on coverslips are transferred to a Petri dish containing 3 mL of FCS-PBS solution and then incubated at 37° C. for 10 minutes. 3 mL of prewarmed (37° C.) 1 mM CMFDG staining solution is added to give a final dye concentration of 0.5 mM The solutions are mixed rapidly. The cells are incubated at 37° C. for exactly one minute. To stop the loading, the cells are transferred to a 1.8 mL of ice-cold FCS-PBS solution. FDG is loaded into cells by using the same procedure except that the final dye concentrations is 2 mM. Cells are then incubated under normal culture conditions to examine the dye retention. Cells are examined without washing at the desired time for their fluorescence under a Zeiss microscope equipped with a FITC filter set (EX 485 nm/EM 530 nm).

In the case of `O=C1OC2(c3ccc(O[C@@H]4O[C@H](CO)[C@H](O)[C@H](O)[C@H]4O)cc3Oc3cc(O[C@@H]4O[C@H](CO)[C@H](O)[C@H](O)[C@H]4O)ccc32)c2ccc(CCl)cc21` [CMFDG, 5-chloromethylfluorescein di-β-D-galactopyranoside], the cytotoxicity result in series [1] was “no cytotoxicity”. In addition, in series [2], the cell morphology entry is listed as “morphologically normal” and the “population doubling time versus control” value is “same population doubling time”. In addition, in series [3], the “fluorescence of loaded cells” value is given as “brightly fluorescent”. In addition, in series [4] (each lacZ-positive yeast strain, CytoFluor 2300 plate reader), the “fluorescence plotted over time” value is “linear increase in fluorescence”. Moreover, the “fluorescence intensity over time versus level of lacZ expression (ONPG assay)” value in series [4] (transformed yeast cells) is “correlates well”. In addition, the “staining of cells after 10 minutes incubation” value in series [5] (0.5 mM CMFDG versus 2 mM FDG, hypoosmotic shock loading) was “very well stained and much brighter”. Besides, the “stained cells apparently as bright as after 10 minutes incubation” value in series [5] (after incubation for 4 hours, 0.5 mM) was “more than 70%”.
